Measured values from US20240425512A1, “NITROGEN-CONTAINING HETEROCYCLIC COMPOUND, PHARMACEUTICAL COMPOSITION THEREOF AND APPLICATION THEREOF” (280 Bio, Inc., priority 2023, published 2024).
pIC50: −log10 of the molar value. Read-outs that look alike come from different tables or passages of the source.

What was measured:
[1] = test system: GP2D cells; test: Proliferation inhibition on RAS cell lines measured by CTG, GP2D; assay type: cell-based; settings: CellTiter Glo
Procedure: (§1) The proliferation inhibitory effect of the compounds on various mutations was evaluated by determining the proliferation inhibitory activity of the compounds on these cell lines.
(§2) The assay was conducted on either 384-well plates or 96-well plates. The procedures are as follows:
(§3) The cell suspensions were added to 384- or 96-well plates (384-well plate: 50 μL; 96-well plate: 100 μL) except for peripheral wells. The plates were placed in a carbon dioxide incubator overnight. NCI-H358, AGS, NCI-H460, MKN-1, LS513, LoVo, and NCI-H441 were placed in a 5%, 370 carbon dioxide incubator overnight, and SW620 was placed in a 0%, 370 carbon dioxide incubator overnight. The HPD300 micro-dosing instrument was used to add the corresponding concentration of compound to each well (9-10 concentration gradients of compound were obtained by 3-fold dilution). Cell plates were incubated in a carbon dioxide incubator for 5-6 days. NCI-H358, AGS, NCI-H460 and MKN-1 were incubated at 5%, 37° incubator and SW620 was incubated at 0%, 370 incubator. On the day of plate measurement, the 384- or 96-well plates were first equilibrated at room temperature for 10-30 min, then CellTiter Glo reagent (384-well plate: 25 μL; 96-well plate: 100 μL) was added to the 384- or 96-well plate, shaken for 10 min away from light, and incubated for 10 min. The plates were placed into Victor NIVO or ENVIDION reader plates, and XLFit was utilized to plot the pharmacodynamic inhibition curve and calculate the IC50 value. “IC50>10 μM” is denoted by “*”, “10 μM≥IC50≥1 μM” is denoted by “**”, and “1 μM≥IC50>100 nM” is denoted by “***”, “IC50<100 nM” is denoted by “****”

[2] = test system: LS513 colon cancer cell with KRAS G12D mutation; test: Proliferation inhibition on RAS cell lines measured by CTG, LS513; assay type: cell-based; settings: LS513 cells, incubated for 6 days
Source text: NCI-H358 is a human non-small cell lung cancer cell line with KRAS G12C mutation; AGS is a gastric cancer cell line with KRAS G12D mutation; SW620 is a colon cancer cell with KRAS G12V mutation; NCI-H460 is a non-small cell lung cancer cell with KRAS Q61H mutation; MKN1 is a wild-type gastric cancer cell with KRAS-amplified; LS513 is a colon cancer cell with KRAS G12D mutation; LoVo is a colon cancer cell with KRAS G13D mutation; NCI-H441 is a lung cancer cell with KRAS G12V mutation, and Capan-2 is a pancreatic cancer cell with KRAS G12V mutation.
as §1, §2, §3

[3] = 144 h, Table 3, incubated for 6 days, read-out: IC50 (GP2D^l)
[4] = Homo sapiens, LS-513, 144 h, Table 3, CellTiter Glo, read-out: IC50 (LS513^k)
[5] = Homo sapiens, LS-513, 144 h, Table 2, CellTiter Glo, read-out: IC50 (LS513^f)
[6] = 144 h, Table 2, incubated for 6 days, read-out: IC50 (GP2D^j)
[7] = Homo sapiens, LS-513, 144 h, Table 1, CellTiter Glo, read-out: IC50 (LS513^f)
[8] = Table 3, incubated for 6 days, read-out: IC50 (GP2D^l)

| pIC50 [2, 5] | SMILES | pIC50 [1, 3] | other results |
| --- | --- | --- | --- |
| 6.00 to 7.00 | C#Cc1c(F)ccc2cc(O)cc(-c3ncc4c(N5CCCCCN5C(=O)OCC)nc(OC[C@@]56CCCN5C[C@H](F)C6)nc4c3F)c12 [Compound 20] |  |  |
| > 7.00 | C#Cc1c(F)ccc2cc(O)cc(-c3ncc4c(N5CCCCCN5)nc(OCC56CCCN5C(COc5cc(C(F)(F)F)cnn5)CC6)nc4c3F)c12 (stereo not shown) [Compound 58] |  | pIC50 [1, 6]: > 7.00 |
| 6.00 to 7.00 | C#Cc1c(F)ccc2cc(O)cc(-c3ncc4c(N5CCCCCN5)nc(OCC5(CN6CCCC6)CC5)nc4c3F)c12 [Compound 53] |  |  |
| > 7.00 | C#Cc1c(F)ccc2c(F)c(O)cc(-c3ncc4c(N5CCCCCN5)nc(OC[C@@]56CCCN5C[C@H](F)C6)nc4c3F)c12 [Compound 64] |  | pIC50 [1, 6]: > 7.00 |
| > 7.00 | Nc1cc(Cl)c(C(F)(F)F)c(-c2ncc3c(N4CCCCCN4)nc(OC[C@@]45CCCN4C[C@H](F)C5)nc3c2F)c1 [Compound 81] |  | pIC50 [1, 6]: 6.00 to 7.00 |
| 5.00 to 6.00 | C#Cc1c(F)ccc2cc(O)cc(-c3ncc4c(N5CCNCCN5)nc(OC[C@@]56CCCN5C[C@H](F)C6)nc4c3F)c12 [Compound 40] |  |  |
| > 7.00 | C#Cc1c(F)ccc2cc(O)cc(-c3ncc4c(N5CCCCCN5)nc(OCC5(CN6CCCCC6)CC5)nc4c3F)c12 [Compound 47] |  |  |
| 6.00 to 7.00 | C#Cc1c(F)ccc2cc(O)cc(-c3ncc4c(N5CCCCCN5)nc(OC[C@]56CCCN5[C@H](c5cc(F)c(F)c(F)c5)CC6)nc4c3F)c12 [Compound 85] |  | pIC50 [1, 6]: 6.00 to 7.00 |
| 6.00 to 7.00 | N#Cc1c(N)sc2c(F)ccc(-c3c(Cl)cc4c(N5CCCCCN5)nc(OC[C@@]56CCCN5C[C@H](F)C6)nc4c3F)c12 [Compound 42] |  |  |
| > 7.00 | CCc1c(F)ccc2cc(O)cc(N3CCc4c(nc(OC[C@@]56CCCN5C[C@H](F)C6)nc4N4CCCCCN4)C3)c12 [Compound 51] |  |  |
| > 7.00 | CCc1cc2c(N3CCCCCN3)nc(OC[C@@]34CCCN3C[C@H](F)C4)nc2c(F)c1-c1ccc(F)c2sc(N)c(C#N)c12 [Compound 44] |  |  |
| > 7.00 | CCc1c(F)ccc2cc(O)cc(-c3ncc4c(N5CCCCCN5)nc(OCC5(CN6CCOCC6)CC5)nc4c3F)c12 [Compound 46] |  |  |
| > 7.00 | C=Cc1cc2c(N3CCCCCN3)nc(OC[C@@]34CCCN3C[C@H](F)C4)nc2c(F)c1-c1ccc(F)c2sc(N)c(C#N)c12 [Compound 43] |  |  |
| > 7.00 | C#Cc1c(F)ccc2cc(O)cc(-c3ncc4c(N5CCCC(F)(F)CN5)nc(OC[C@@]56CCCN5C[C@H](F)C6)nc4c3F)c12 [Compound 56] |  |  |

The next lines start with the compound.

| SMILES | pIC50 [2, 5] | pIC50 [1, 3] | other results |
| --- | --- | --- | --- |
| C#Cc1c(F)ccc2cc(OC(=O)N(C)C[C@@H]3CCCN3)cc(-c3ncc4c(N5CCCCCN5)nc(OC[C@@]56CCCN5C[C@H](F)C6)nc4c3F)c12 [Compound 151] |  | > 7.00 | pIC50 [2, 4]: > 7.00 |
| C#Cc1c(F)ccc2cc(OC(=O)N3CCCC3)cc(-c3ncc4c(N5CCCCCN5)nc(OC[C@@]56CCCN5C[C@H](F)C6)nc4c3F)c12 [Compound 111] |  | > 7.00 |  |
| C#Cc1c(F)ccc2cc(O)cc(-c3ncc4c(N5CCCCCN5)nc(OCC5(C)CN(C)CCC5C(F)F)nc4c3F)c12 (stereo not shown) [Compound 149] |  | > 7.00 | pIC50 [2, 4]: > 7.00 |
| C#Cc1c(F)ccc2cc(O)cc(-c3ncc4c(N5CCCCCN5)nc(OC[C@@]56CC[C@H](c7cc(F)c(C(F)(F)F)c(F)c7)N5C[C@H](F)C6)nc4c3F)c12 [Compound 117] |  | 6.00 to 7.00 | pIC50 [2, 4]: 6.00 to 7.00 |
| C#Cc1c(F)ccc2cc(O)cc(-c3ncc4c(N5CCCCCN5)nc(OC[C@@]56CC[C@H](c7ccc(OC(F)(F)F)cc7)N5C[C@H](F)C6)nc4c3F)c12 [Compound 121] |  | 6.00 to 7.00 | pIC50 [2, 4]: 6.00 to 7.00 |
| C#Cc1c(F)ccc2cc(O)cc(-c3ncc4c(N5CCCCCN5)nc(OCC5(CN(C)C)CC5)nc4c3F)c12 [Compound 13] |  |  | pIC50 ([2]; Table 1, CellTiter Glo, read-out: IC50 (LS513^f)): > 7.00 |
| N#Cc1c(N)sc2c(F)ccc(-c3c(C(F)(F)F)cc4c(N5CCCCCN5)nc(OC[C@@]56CCCN5C[C@H](F)C6)nc4c3F)c12 [Compound 48] | > 7.00 |  |  |
| CCc1c(F)ccc2cc(N)cc(-c3c(Cl)cc4c(N5CCCCCN5)nc(OC[C@@]56CCCN5C[C@H](F)C6)nc4c3F)c12 [Compound 134] |  | 5.00 to 6.00 | pIC50 [2, 4]: 6.00 to 7.00 |
| C#Cc1c(F)ccc2cc(O)cc(-c3ncc4c(N5CCCCCN5)nc(OCC56CCCN5CC(=C(F)F)C6)nc4c3F)c12 (stereo not shown) [Compound 22] |  |  | pIC50 [2, 7]: > 7.00 |
| C#Cc1c(F)ccc2cc(OC(=O)N3CCC[C@H]3COC)cc(-c3ncc4c(N5CCCCCN5)nc(OC[C@@]56CCCN5C[C@H](F)C6)nc4c3F)c12 [Compound 74] |  | > 7.00 | pIC50 [2, 4]: > 7.00 |
| C#Cc1c(F)ccc2cc(OC(=O)NCCCCCCCC)cc(-c3ncc4c(N5CCCCCN5)nc(OC[C@@]56CCCN5C[C@H](F)C6)nc4c3F)c12 [Compound 69] | > 7.00 |  | pIC50 [1, 6]: > 7.00 |
| C#Cc1c(F)ccc2cc(OC(=O)N(C)CCNC)cc(-c3ncc4c(N5CCCCCN5)nc(OC[C@@]56CCCN5C[C@H](F)C6)nc4c3F)c12 [Compound 153] |  | > 7.00 | pIC50 [2, 4]: > 7.00 |
| C#Cc1c(F)ccc2cc(OC(=O)NCCOCCOC)cc(-c3ncc4c(N5CCCCCN5)nc(OC[C@@]56CCCN5C[C@H](F)C6)nc4c3F)c12 [Compound 92] |  | > 7.00 | pIC50 [2, 4]: > 7.00 |
| C#Cc1c(F)ccc2cc(O)cc(-c3ncc4c(N5CCCCN5)nc(OC[C@@]56CCCN5C[C@H](F)C6)nc4c3F)c12 [Compound 16] |  |  | pIC50 ([2]; Homo sapiens, LS-513, 144 h, Table 1, numeric value, read-out: IC50 (LS513^f)): 7.93; pIC50 [2, 7]: > 7.00 |
| C#Cc1c(F)ccc2cc(OC(=O)N(CCOC)CCOC)cc(-c3ncc4c(N5CCCCCN5)nc(OC[C@@]56CCCN5C[C@H](F)C6)nc4c3F)c12 [Compound 98] |  | > 7.00 | pIC50 [2, 4]: > 7.00 |
| C#Cc1c(F)ccc2cc(O)cc(-c3ncc4c(N5CCCCCN5)nc(OCC5(CN6CCN(C)CC6)CC5)nc4c3F)c12 [Compound 52] | 6.00 to 7.00 |  |  |
| C#Cc1c(F)ccc2cc(OC(=O)N3CCCCC3)cc(-c3ncc4c(N5CCCCCN5)nc(OC[C@@]56CCCN5C[C@H](F)C6)nc4c3F)c12 [Compound 99] |  | > 7.00 | pIC50 [2, 4]: > 7.00 |
| C#Cc1c(F)ccc2cc(O)cc(-c3ncc4c(N5CCCCCN5)nc(OCC5CN(c6nccn6C)C5)nc4c3F)c12 [Compound 138] |  | 6.00 to 7.00 |  |
| C#Cc1c(F)ccc2cc(O)cc(-c3ncc4c(N5CC=CCN5)nc(OC[C@@]56CCCN5C[C@H](F)C6)nc4c3F)c12 [Compound 76] |  |  | pIC50 [1, 6]: 6.00 to 7.00 |
| C#Cc1c(F)ccc2cc(O)cc(-c3ncc4c(N5CCCCCN5)nc(OCC5(CN6CCN(c7cc(F)c(F)c(F)c7)CC6)CC5)nc4c3F)c12 [Compound 130] |  |  | pIC50 [1, 8]: 6.00 to 7.00 |
| C#Cc1c(F)ccc2cc(O)cc(-c3ncc4c(N5CCCCCN5)nc(OCC5(C)C(C)CCN5CC=C)nc4c3F)c12 (stereo not shown) [Compound 148] |  | > 7.00 |  |
| C#Cc1c(F)ccc2cc(OC(=O)N(C)C)cc(-c3ncc4c(N5CCCCCN5)nc(OC[C@@]56CCCN5C[C@H](F)C6)nc4c3F)c12 [Compound 89] |  | 6.00 to 7.00 |  |
| C#Cc1c(F)ccc2cc(O)cc(-c3c(C(F)(F)F)cc4c(N5CCCCCN5)nc(OC[C@@]56CCCN5C[C@H](F)C6)nc4c3F)c12 [Compound 54] |  |  | pIC50 [1, 6]: 6.00 to 7.00 |
| Oc1cc(-c2ncc3c(N4CCCCCN4)nc(OC[C@@]45CCCN4C[C@H](F)C5)nc3c2F)c2c(F)c(F)ccc2c1 [Compound 66] |  |  | pIC50 [1, 6]: > 7.00 |
| C#Cc1c(F)ccc2cc(O)cc(-c3ncc4c(N5CCCCCN5C(=O)OC(C)(C)C)nc(OC[C@@]56CCCN5C[C@H](F)C6)nc4c3F)c12 [Compound 12] |  |  | pIC50 [2, 7]: > 7.00 |
| C#Cc1c(F)ccc2cc(O)cc(-c3ncc4c(N5CCCCCN5C(=O)OC(C)(C)C)nc(OCC5(CN(C)C)CC5)nc4c3F)c12 [Compound 14] |  |  | pIC50 [2, 7]: 6.00 to 7.00 |
| C#Cc1c(F)ccc2cc(O)cc(-c3ncc4c(N5CCCCCN5)nc(OCC5(CN6CCC(OCC(=O)N[C@H](C(=O)N7C[C@H](O)C[C@H]7C(=O)N[C@@H](C)c7ccc(-c8scnc8C)cc7)C(C)(C)C)CC6)CC5)nc4c3F)c12 [Compound 108] |  |  | pIC50 [1, 8]: > 7.00 |
| C#Cc1c(F)ccc2cc(O)cc(-c3ncc4c(N5CCCCCN5)nc(OCC56CCCN5C/C(=C/F)C6)nc4c3F)c12 (stereo not shown) [Compound 21] |  |  | pIC50 [2, 7]: > 7.00 |
